Where a SMILES comes first, the peptide text is derived from it. [ ]: non-standard residue; d: D form. Aib = CC(C)(N)C(=O)O

One series has as its target human GCGR (Homo sapiens, UniProt P47871). As to the kind of experiment: Peptide-receptor mediated cAMP accumulation (LANCE Ultra cAMP) in CHO-K1 cells transfected with human GCGR. It is filed as cell-based. Conditions: Table 3.
The target of a further series is human GLP-1R (Homo sapiens, UniProt P43220). Briefly: Peptide-receptor mediated cAMP accumulation (LANCE Ultra cAMP) in CHO-K1 cells transfected with human GLP-1R. It is filed as cell-based. Conditions: hGLP1 pEC50 (cAMP mean (n = 3): 11 point curve starting at 1 nM, Table 3). For orientation: Cyclic AMP is a second messenger, typically raised through Gs and lowered through Gi signalling.
Chain of human GLP-1R (P43220 24-463): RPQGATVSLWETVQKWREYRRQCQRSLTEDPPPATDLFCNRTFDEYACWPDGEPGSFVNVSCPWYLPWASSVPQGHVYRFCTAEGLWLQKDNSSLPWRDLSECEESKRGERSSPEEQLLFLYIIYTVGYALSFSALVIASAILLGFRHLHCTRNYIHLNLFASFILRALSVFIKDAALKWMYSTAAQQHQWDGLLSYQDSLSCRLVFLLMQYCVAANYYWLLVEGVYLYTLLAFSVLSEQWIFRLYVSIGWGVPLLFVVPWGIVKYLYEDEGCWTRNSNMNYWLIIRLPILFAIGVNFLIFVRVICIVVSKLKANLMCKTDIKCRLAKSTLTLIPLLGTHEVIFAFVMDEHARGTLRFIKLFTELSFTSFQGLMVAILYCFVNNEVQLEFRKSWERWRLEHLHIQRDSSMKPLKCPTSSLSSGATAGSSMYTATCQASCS

A short description of the next series: in vivo. As to conditions: male, rat.

Chain of human GCGR (P47871 26-477): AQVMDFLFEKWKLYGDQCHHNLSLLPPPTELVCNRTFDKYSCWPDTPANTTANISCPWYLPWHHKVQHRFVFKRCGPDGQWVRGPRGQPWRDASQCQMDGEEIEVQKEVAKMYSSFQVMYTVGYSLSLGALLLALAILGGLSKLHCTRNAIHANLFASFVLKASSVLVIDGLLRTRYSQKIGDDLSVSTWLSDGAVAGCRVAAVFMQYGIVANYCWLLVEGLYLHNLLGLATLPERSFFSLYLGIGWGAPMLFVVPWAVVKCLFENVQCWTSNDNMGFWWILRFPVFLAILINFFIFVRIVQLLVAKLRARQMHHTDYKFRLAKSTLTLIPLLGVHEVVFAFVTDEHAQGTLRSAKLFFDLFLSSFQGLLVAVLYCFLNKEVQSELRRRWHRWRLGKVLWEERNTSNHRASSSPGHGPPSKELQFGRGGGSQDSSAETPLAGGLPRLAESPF

`CC(C)C[C@H](NC(=O)[C@H](Cc1ccc(O)cc1)NC(=O)[C@H](CCCCN)NC(=O)[C@H](CO)NC(=O)[C@H](Cc1ccc(O)cc1)NC(=O)[C@H](CC(=O)O)NC(=O)[C@H](CO)NC(=O)[C@@H](NC(=O)[C@H](Cc1ccccc1)NC(=O)[C@@H](NC(=O)CNC(=O)[C@H](Cc1c[nH]cn1)NC(=O)[C@H](CO)NC(=O)[C@@H](N)Cc1ccc(O)cc1)[C@@H](C)O)[C@@H](C)O)C(=O)N[C@@H](CC(=O)O)C(=O)N[C@@H](CCCCN)C(=O)N[C@@H](C)C(=O)N[C@@H](CCCNC(=N)N)C(=O)N[C@@H](C)C(=O)N[C@@H](CCC(N)=O)C(=O)N[C@@H](CCC(=O)O)C(=O)N[C@@H](Cc1ccccc1)C(=O)N[C@H](C(=O)N[C@@H](CCCCN)C(=O)N[C@@H](Cc1c[nH]c2ccccc12)C(=O)N[C@@H](CC(C)C)C(=O)N[C@@H](CCC(=O)O)C(=O)N[C@@H](CC(=O)O)C(=O)N[C@@H](CCC(=O)O)C(=O)N1CCC[C@H]1C(=O)N[C@@H](CO)C(=O)N[C@@H](CO)C(=O)NCC(=O)N[C@@H](C)C(=O)N1CCC[C@H]1C(=O)N1CCC[C@H]1C(=O)N1CCC[C@H]1C(=O)N[C@@H](CO)C(=O)O)C(C)C` [Compound A43] (H-YSHGTFTSDYSKYLDKARAQEFVKWLEDEPSSGAPPPS-OH; N-terminus assumed): the EC50 – broadly, the concentration that produces a half-maximal response – at human GCGR was 0.00158 nM; at human GLP-1R, greater than 1 nM. The clearance – broadly, the volume of plasma or blood freed of the substance per unit of time – in “in vivo” came out at 47 mL/min/kg.

For the compound `CC(C)C[C@H](NC(=O)[C@H](Cc1ccc(O)cc1)NC(=O)[C@H](CCCCN)NC(=O)[C@H](CO)NC(=O)[C@H](Cc1ccc(O)cc1)NC(=O)[C@H](CC(=O)O)NC(=O)[C@H](CO)NC(=O)[C@@H](NC(=O)[C@H](Cc1ccccc1)NC(=O)[C@@H](NC(=O)CNC(=O)[C@H](Cc1c[nH]cn1)NC(=O)[C@H](CO)NC(=O)[C@@H](N)Cc1ccc(O)cc1)[C@@H](C)O)[C@@H](C)O)C(=O)N[C@@H](CC(=O)O)C(=O)N[C@@H](CO)C(=O)N[C@@H](C)C(=O)N[C@@H](CCCNC(=N)N)C(=O)N[C@@H](C)C(=O)N[C@@H](CCC(N)=O)C(=O)N[C@@H](CCC(=O)O)C(=O)N[C@@H](Cc1ccccc1)C(=O)N[C@H](C(=O)N[C@@H](CCCCN)C(=O)N[C@@H](Cc1c[nH]c2ccccc12)C(=O)N[C@@H](CC(C)C)C(=O)N[C@@H](CCC(=O)O)C(=O)N[C@@H](CC(=O)O)C(=O)N[C@@H](CCC(=O)O)C(=O)N1CCC[C@H]1C(=O)N[C@@H](CO)C(=O)N[C@@H](CO)C(=O)NCC(=O)N[C@@H](CCCCN)C(=O)N1CCC[C@H]1C(=O)N1CCC[C@H]1C(=O)N1CCC[C@H]1C(=O)N[C@@H](CO)C(=O)O)C(C)C` [Compound A61] (H-YSHGTFTSDYSKYLDSARAQEFVKWLEDEPSSGKPPPS-OH; N-terminus assumed), the concentration giving a half-maximal response (EC50) on human GCGR is 0.00398 nM; at human GLP-1R, greater than 1 nM. The compound further registered a clearance in “in vivo” of 29.4 mL/min/kg.

With `CC(C)C[C@H](NC(=O)[C@H](Cc1ccc(O)cc1)NC(=O)[C@H](CCCCN)NC(=O)[C@H](CO)NC(=O)[C@H](Cc1ccc(O)cc1)NC(=O)[C@H](CC(=O)O)NC(=O)[C@H](CO)NC(=O)[C@@H](NC(=O)[C@H](Cc1ccccc1)NC(=O)[C@@H](NC(=O)CNC(=O)[C@H](Cc1c[nH]cn1)NC(=O)[C@H](CO)NC(=O)[C@@H](N)Cc1ccc(O)cc1)[C@@H](C)O)[C@@H](C)O)C(=O)N[C@@H](CC(=O)O)C(=O)NC(C)(C)C(=O)N[C@@H](CCCCN)C(=O)N[C@@H](CCCNC(=N)N)C(=O)N[C@@H](C)C(=O)N[C@@H](CCC(N)=O)C(=O)N[C@@H](CCC(=O)O)C(=O)N[C@@H](Cc1ccccc1)C(=O)N[C@H](C(=O)NC(C)(C)C(=O)N[C@@H](Cc1c[nH]c2ccccc12)C(=O)N[C@@H](CC(C)C)C(=O)N[C@@H](CCC(=O)O)C(=O)N[C@@H](CC(=O)O)C(=O)N[C@@H](CCC(=O)O)C(=O)N1CCC[C@H]1C(=O)N[C@@H](CCCCN)C(=O)N[C@@H](CO)C(=O)N[C@@H](CCCCN)C(=O)N[C@@H](C)C(=O)N1CCC[C@H]1C(=O)N1CCC[C@H]1C(=O)N1CCC[C@H]1C(=O)N[C@@H](CO)C(=O)O)C(C)C` [Compound A56] (H-YSHGTFTSDYSKYLD[Aib]KRAQEFV[Aib]WLEDEPKSKAPPPS-OH; N-terminus assumed), the EC50 at human GLP-1R is greater than 1 nM. Moreover, the clearance in “in vivo” was 39.9 mL/min/kg.

At human GLP-1R, `CC(C)C[C@H](NC(=O)[C@H](Cc1ccc(O)cc1)NC(=O)[C@H](CCCCN)NC(=O)[C@H](CO)NC(=O)[C@H](Cc1ccc(O)cc1)NC(=O)[C@H](CC(=O)O)NC(=O)[C@H](CO)NC(=O)[C@@H](NC(=O)[C@H](Cc1ccccc1)NC(=O)[C@@H](NC(=O)CNC(=O)[C@H](CCC(N)=O)NC(=O)[C@H](CO)NC(=O)[C@@H](N)Cc1ccc(O)cc1)[C@@H](C)O)[C@@H](C)O)C(=O)N[C@@H](CC(=O)O)C(=O)NC(C)(C)C(=O)N[C@@H](CCCCN)C(=O)N[C@@H](C)C(=O)N[C@@H](C)C(=O)N[C@@H](CCC(N)=O)C(=O)N[C@@H](CCC(=O)O)C(=O)N[C@@H](Cc1ccccc1)C(=O)N[C@H](C(=O)NC(C)(C)C(=O)N[C@@H](Cc1c[nH]c2ccccc12)C(=O)N[C@@H](CC(C)C)C(=O)N[C@@H](CCC(=O)O)C(=O)N[C@@H](CC(=O)O)C(=O)N[C@@H](CCC(=O)O)C(=O)N1CCC[C@H]1C(=O)N[C@@H](CO)C(=O)N[C@@H](CO)C(=O)NCC(=O)N[C@@H](C)C(=O)N1CCC[C@H]1C(=O)N1CCC[C@H]1C(=O)N1CCC[C@H]1C(=O)N[C@@H](CO)C(=O)O)C(C)C` [Compound A95] (H-YSQGTFTSDYSKYLD[Aib]KAAQEFV[Aib]WLEDEPSSGAPPPS-OH; N-terminus assumed) came in with an EC50 greater than 1 nM. For the same compound, in “in vivo”, the clearance stood at 15.4 mL/min/kg.

For `CC(C)C[C@H](NC(=O)[C@H](Cc1ccc(O)cc1)NC(=O)[C@H](CCCCN)NC(=O)[C@H](CO)NC(=O)[C@H](Cc1ccc(O)cc1)NC(=O)[C@H](CC(=O)O)NC(=O)[C@H](CO)NC(=O)[C@@H](NC(=O)[C@H](Cc1ccccc1)NC(=O)[C@@H](NC(=O)CNC(=O)[C@H](Cc1c[nH]cn1)NC(=O)[C@H](CO)NC(=O)[C@@H](N)Cc1ccc(O)cc1)[C@@H](C)O)[C@@H](C)O)C(=O)N[C@@H](CC(=O)O)C(=O)NC(C)(C)C(=O)N[C@@H](CCCCN)C(=O)N[C@@H](CCCNC(=N)N)C(=O)N[C@@H](C)C(=O)N[C@@H](CCC(N)=O)C(=O)N[C@@H](CCC(=O)O)C(=O)N[C@@H](Cc1ccccc1)C(=O)N[C@H](C(=O)NC(C)(C)C(=O)N[C@@H](Cc1c[nH]c2ccccc12)C(=O)N[C@@H](CC(C)C)C(=O)N[C@@H](CCC(=O)O)C(=O)N[C@@H](CC(=O)O)C(=O)N[C@@H](CCC(=O)O)C(=O)N[C@@H](CCCCN)C(=O)N[C@@H](CCCNC(=N)N)C(=O)N[C@@H](CC(N)=O)C(=O)N[C@@H](CCCCN)C(=O)N[C@@H](CC(N)=O)C(=O)N1CCC[C@H]1C(=O)N1CCC[C@H]1C(=O)N1CCC[C@H]1C(=O)N[C@@H](CO)C(=O)O)C(C)C` [Compound A48] (H-YSHGTFTSDYSKYLD[Aib]KRAQEFV[Aib]WLEDEKRNKNPPPS-OH; N-terminus assumed), on human GLP-1R, the EC50 was greater than 1 nM. Further, in “in vivo”, the clearance is 37 mL/min/kg.

Regarding `CC(C)C[C@H](NC(=O)[C@H](Cc1ccc(O)cc1)NC(=O)[C@H](CCCCN)NC(=O)[C@H](CO)NC(=O)[C@H](Cc1ccc(O)cc1)NC(=O)[C@H](CC(=O)O)NC(=O)[C@H](CO)NC(=O)[C@@H](NC(=O)[C@H](Cc1ccccc1)NC(=O)[C@@H](NC(=O)CNC(=O)[C@H](Cc1c[nH]cn1)NC(=O)[C@H](CO)NC(=O)[C@@H](N)Cc1ccc(O)cc1)[C@@H](C)O)[C@@H](C)O)C(=O)N[C@@H](CC(=O)O)C(=O)NC(C)(C)C(=O)N[C@@H](CCCCN)C(=O)N[C@@H](C)C(=O)N[C@@H](C)C(=O)N[C@@H](CCC(N)=O)C(=O)N[C@@H](CCC(=O)O)C(=O)N[C@@H](Cc1ccccc1)C(=O)N[C@H](C(=O)NC(C)(C)C(=O)N[C@@H](Cc1c[nH]c2ccccc12)C(=O)N[C@@H](CC(C)C)C(=O)N[C@@H](CCC(=O)O)C(=O)N[C@@H](CC(=O)O)C(=O)N[C@@H](CCC(=O)O)C(=O)N1CCC[C@H]1C(=O)N[C@@H](CO)C(=O)N[C@@H](CO)C(=O)NCC(=O)N[C@@H](C)C(=O)N1CCC[C@H]1C(=O)N1CCC[C@H]1C(=O)N1CCC[C@H]1C(=O)N[C@@H](CO)C(=O)O)C(C)C` [Compound A76] (H-YSHGTFTSDYSKYLD[Aib]KAAQEFV[Aib]WLEDEPSSGAPPPS-OH; N-terminus assumed), on human GLP-1R, the EC50 is greater than 1 nM. In the series “in vivo”, this compound displayed a clearance of 15.1 mL/min/kg.

`CC[C@H](C)[C@H](NC(=O)[C@H](CC(=O)O)NC(=O)[C@H](CC(C)C)NC(=O)[C@H](Cc1ccc(O)cc1)NC(=O)[C@H](CCCCN)NC(=O)[C@H](CO)NC(=O)[C@H](Cc1ccc(O)cc1)NC(=O)[C@H](CC(=O)O)NC(=O)[C@H](CO)NC(=O)[C@@H](NC(=O)[C@H](Cc1ccccc1)NC(=O)[C@@H](NC(=O)CNC(=O)[C@H](Cc1c[nH]cn1)NC(=O)[C@H](CO)NC(=O)[C@@H](N)Cc1ccc(O)cc1)[C@@H](C)O)[C@@H](C)O)C(=O)N[C@@H](CCCCN)C(=O)N[C@@H](CCCNC(=N)N)C(=O)N[C@@H](C)C(=O)N[C@@H](CCC(N)=O)C(=O)N[C@@H](CCC(=O)O)C(=O)N[C@@H](Cc1ccccc1)C(=O)N[C@H](C(=O)NC(C)(C)C(=O)N[C@@H](Cc1c[nH]c2ccccc12)C(=O)N[C@@H](CC(C)C)C(=O)N[C@@H](CCC(=O)O)C(=O)N[C@@H](CC(=O)O)C(=O)N[C@@H](CCC(=O)O)C(=O)N1CCC[C@H]1C(=O)N[C@@H](CO)C(=O)N[C@@H](CO)C(=O)NCC(=O)N[C@@H](C)C(=O)N1CCC[C@H]1C(=O)N1CCC[C@H]1C(=O)N1CCC[C@H]1C(=O)N[C@@H](CO)C(=O)O)C(C)C` [Compound A52] (H-YSHGTFTSDYSKYLDIKRAQEFV[Aib]WLEDEPSSGAPPPS-OH) displayed an EC50 on human GLP-1R greater than 1 nM. In “in vivo”, this compound yielded a clearance of 29 mL/min/kg.

The values above are taken from patent US20240239861A1, “GLUCAGON-RECEPTOR SELECTIVE POLYPEPTIDES AND METHODS OF USE THEREOF” (i2O Therapeutics, Inc., priority 2016, published 2024).
